# Reference: ChEMBL document CHEMBL4616656, “Diisonitrile-Mediated Reactive Oxygen Species Accumulation Leads to Bacterial Growth Inhibition” (J Nat Prod, 2020)
# Calls of active or inactive are those of the source. The rule behind the calls is not given here.
# Assays:
# [1] = system: Bacillus subtilis subsp. subtilis str. 168; assay: Copper chelating activity in Bacillus subtilis 168 assessed as reduction in cytochrome c oxidase activity by measuring increase in ROS level at 10 uM measured over 40 mins by H2DCFDA staining based fluorescence method relative to control
# [2] = system: Bacillus subtilis; assay: Antibacterial activity against Bacillus subtilis 168 at 10 uM after 12 hrs relative to control; assay type: functional
# [3] = biological target: Mushroom tyrosinase (Agaricus bisporus, UniProt O42713+Q00024+C7FF04+C7FF05); assay: Inhibition of mushroom tyrosinase using L-DOPA as substrate preincubated for 10 mins followed by substrate addition and measured after 15 mins by spectrophotometric method
# [4] = system: Bacillus subtilis; assay: microbe, parasite or virus in culture; conditions: subsp. subtilis str. 168, 12 h
# Description: Antibacterial activity against Bacillus subtilis 168 after 12 hrs
# [5] = system: Bacillus subtilis subsp. subtilis str. 168; assay: Copper chelating activity in Bacillus subtilis 168 assessed as reduction in cytochrome c oxidase activity by measuring decrease in intracellular ATP level at 10 uM incubated for 15 to 90 mins by bioluminescence method relative to control; assay type: cell-based; parameters: scale not given: the % may be the effect or the level left
# [6] = system: Bacillus subtilis; assay: Antibacterial activity against Bacillus subtilis 168 assessed as inhibition rate at 100 uM after 12 hrs relative to control; assay type: functional; conditions: subsp. subtilis str. 168, 12 h
# [7] = system: Bacillus subtilis; assay: Antibacterial activity against Bacillus subtilis 168 in presence of CuCl2 by paper disk assay; assay type: functional, organism-based; conditions: subsp. subtilis str. 168
# [8] = system: Bacillus subtilis; assay: Antibacterial activity against Bacillus subtilis 168 in presence of Fe2+ by paper disk assay; assay type: functional, organism-based; conditions: subsp. subtilis str. 168
# [9] = system: Bacillus subtilis; assay: Antibacterial activity against Bacillus subtilis 168 in presence of Fe3+ by paper disk assay; assay type: functional, organism-based; conditions: subsp. subtilis str. 168
# [10] = system: Bacillus subtilis subsp. subtilis str. 168; assay: Copper chelating activity in Bacillus subtilis 168 assessed as reduction in cellular copper content at 100 uM incubated for 1 hr by ICP-MS analysis relative to control; parameters: scale not given: the % may be the effect or the level left
# [11] = system: Enterococcus faecalis; assay: Antibacterial activity against Enterococcus faecalis ATCC 29212 at 10 uM after 12 hrs relative to control; assay type: functional
# [12] = system: Staphylococcus aureus; assay: Antibacterial activity against Staphylococcus aureus ATCC 43300 at 10 uM after 12 hrs relative to control; assay type: functional
# [13] = system: Acinetobacter baumannii; assay: Antibacterial activity against Acinetobacter baumannii ATCC 19606 at 10 uM after 12 hrs relative to control; assay type: functional, ATCC 19606 = CIP 70.34 = JCM 6841
# [14] = system: Escherichia coli; assay: Antibacterial activity against Escherichia coli BL21 at 10 uM after 12 hrs relative to control; assay type: functional
# [15] = system: Klebsiella pneumoniae; assay: Antibacterial activity against Klebsiella pneumoniae CMCC 46117 at 10 uM after 12 hrs relative to control; assay type: functional
# [16] = system: Pseudomonas aeruginosa; assay: Antibacterial activity against Pseudomonas aeruginosa ATCC 27853 at 10 uM after 12 hrs relative to control; assay type: functional
# [17] = system: Acinetobacter baumannii ATCC 19606 = CIP 70.34 = JCM 6841; assay: Copper chelating activity in Acinetobacter baumannii ATCC 19606 assessed as increase in ROS level at 10 uM measured over 40 mins by H2DCFDA staining based fluorescence method
# [18] = Bacillus subtilis subsp. subtilis str. 168
SMILES,Activity [1],"Activity [2, 18]",other results
CC(=O)OC[C@H](CCCCNC(=O)C[C@@H](C)C#N)NC(=O)C[C@@H](C)C#N,Active,Active,IC50 [3]: 89.6 µM
COc1cc(Cc2cnc(N)nc2N)cc(OC)c1OC [TRIMETHOPRIM],,,IC50 [4]: 0.3 µM
CC(=O)OC[C@H](CCCCNC(=O)C[C@@H](C)NC=O)NC(=O)C[C@@H](C)NC=O,inactive,inactive,
CC(C#N)CC(=O)NC[C@@H]1CC[C@H](NC(=O)C[C@@H](C)C#N)C(O)O1 (stereo partly specified),,,Activity [5]: 20%; inhibition at 100 µM [6]: 56 to 60%; Activity [7]: inactive; Activity [8]: Active; Activity [9]: Active; Activity [10]: 24%; fold change (FC) [1]: 9; Activity [2]: 50%; Activity [11]: 20 - 30%; Activity [12]: 20 - 30%; Activity [13]: 57%; Activity [14]: 20 - 30%; Activity [15]: 20 - 30%; Activity [16]: 20 - 30%; Activity [17]: Active; IC50 [3]: 89.6 µM
C[C@H](CC(=O)N[C@H](CO)CCCCNC(=O)C[C@@H](C)C#N)NC=O,inactive,inactive,
C[C@H](CC(=O)NCCCC[C@@H](CO)NC(=O)C[C@@H](C)C#N)NC=O,inactive,inactive,
C[C@@H](C#N)CC(=O)NCCCC[C@@H](CO)NC(=O)C[C@@H](C)C#N,Active,Active,IC50 [3]: 89.6 µM
C[C@H](CC(=O)NCCCC[C@@H](CO)NC(=O)C[C@@H](C)NC=O)NC=O,inactive,inactive,

# The next lines start with results.
Activity [1],SMILES,"Activity [2, 18]",other results
inactive,CC(C)=CCC(=O)NC[C@@H]1CC[C@H](NC(=O)C[C@@H](C)C#N)C(O)O1 (stereo partly specified),inactive,
inactive,CC(C)CC(=O)NC[C@@H]1CC[C@H](NC(=O)CC(C)C)C(O)O1 (stereo partly specified),inactive,
inactive,C[C@H](CC(=O)NC[C@@H]1CC[C@H](NC(=O)C[C@@H](C)NC=O)C(O)O1)NC=O (stereo partly specified),inactive,
inactive,CC(C)CCC(=O)NC[C@@H]1CC[C@H](NC(=O)C[C@@H](C)C#N)C(O)O1 (stereo partly specified),inactive,
inactive,C[C@H](CC(=O)N[C@H]1CC[C@@H](CNC(=O)C[C@@H](C)C#N)OC1O)NC=O (stereo partly specified),inactive,
